Each substance was assayed against biotinylated FKBP in the presence of everolimus (RAD001) (assay: EC50 direct binding assay (AlphaLISA): FLAG FRB protein and biotinylated FKBP with serially diluted everolimus). Settings: 30 nM FLAG-tagged FRB, 30 nM biotinylated FKBP; everolimus serial diluted 1:3 from 600 nM.
Method: In a direct binding assay, unlabeled candidate mutant FRB is incubated in solution with tagged wild-type FKBP in the presence of the dimerization molecule, e.g., under conditions suitable for binding of FRB to the dimerization molecule and dimerization of FRB and FKBP. Tagged FKBP can be removed from the reaction by affinity purification; candidate mutant FRB that is able to bind the dimerization molecule and dimerize with the tagged FKBP will also be removed. […] EC50 values for direct binding affinity can then be calculated using methods known in the art.
FRB mutations were also ranked in an alternative assay format. Briefly, FRB proteins incorporating single and double mutations (SEQ ID NO: 54-58) were produced as FLAG tagged constructs in E. coli as described previously. 30 nM (final) of biotinylated FKBP (SEQ ID NO: 59) and each FLAG FRB protein were combined in the presence of everolimus serial diluted 1:3 from a starting final concentration of 600 nM into a 96 well ½ surface flat-bottom plate (PerkinElmer) and incubated for one hour at room temperature. All dilutions were made in 1× AlphaLISA Immunoassay buffer (PerkinElmer). Anti-Flag acceptor beads (PerkinElmer) were added at 10 ug/ml final concentration and incubated for one hour at room temperature. Streptavidin donor beads (PerkinElmer), were then added at a final concentration of 40 ug/ml and the plate was protected from light and incubated for 30 minutes at room temperature. The plate was then read on the PerkinElmer EnVision Multiplate reader equipped with the Alpha Module using excitation of 680 nm and a 570 nm Emission filter.

Sequence of biotinylated FKBP in the presence of everolimus (RAD001) (P62942 2-108 limits assumed): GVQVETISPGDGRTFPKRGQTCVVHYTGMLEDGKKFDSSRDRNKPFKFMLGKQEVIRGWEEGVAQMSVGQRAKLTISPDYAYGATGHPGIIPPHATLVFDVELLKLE

Substance	EC50
E2032I: mutant FRB derived switch domain with E2032I; His-tagged (competition) or His-FLAG-tagged (direct assay)	2.46 nM
E2032L: mutant FRB derived switch domain with E2032L; His-tagged (competition) or His-FLAG-tagged (direct assay)	2.15 nM
T2098L: mutant FRB derived switch domain with T2098L; His-tagged (competition) or His-FLAG-tagged (direct assay)	1.44 nM
Wild type FRB (1): wild type FRB domain of FRAP/mTOR (residues 2021-2113); His-tagged in competition assay, His-FLAG-tagged in direct assay [reference compound]	3.9 nM

From patent publication US20190054117A1, “DIMERIZATION SWITCHES AND USES THEREOF” (priority 2014, published 2019)
